We go through 21 compounds from patent publication US11639350B2, “Heteroaryldihydropyrimidine derivatives and methods of treating hepatitis B infections” (Janssen Pharmaceutica NV, priority 2018, dated 2023).

Broadly, the EC50 is the midpoint of the concentration-response curve. As usually defined, the CC50 is the concentration giving 50% cytotoxicity.

Read-outs that look alike come from different tables or passages of the source. Some results are limits rather than exact numbers.

For one series, the system named is HBV. The series is described as follows: HBV inhibitory activity: HBV DNA in the culture medium of HepG2.2.15 cells by q-PCR. The format is cell-based. The note with it: HepG2.2.15 cells, 6 days of compound treatment, HBV DNA in culture medium by q-PCR, highest concentration 10 μM, read-out: EC50. The method, boiled down: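 HepG2.2.15 cells in 2% FBS medium, 40,000 per well, treated 6 days with compound (medium refreshed once), eight 3-fold dilutions from 10 μM top. HBV DNA extracted from culture medium and quantified by q-PCR; EC50 averaged over repeats. Cytotoxicity run in parallel at 5,000 cells per well, top 100 μM, giving CC50.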

The subject of the next series is HepG2.2.15 cells. The series is described as follows: Cytotoxicity determination in HepG2.2.15 cells (CCK-8). The series is classed as cell-based. The note with it: 6 days of compound treatment, CCK-8, highest concentration 100 μM. In short, it runs like this:
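HepG2.2.15 cells seeded at 5,000 cells/well in 2% FBS medium, incubated overnight at 37° C., then treated 6 days with compounds (8 points, 3-fold dilutions, top 100 μM), medium refreshed once midway. CCK-8 added for 2.5 h; A450 read against 630 nm reference; CC50 calculated, averaged over repeats.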

Take `COC(=O)C1=C(C2CCC(NC(C)=O)C2)NC(c2nccs2)=NC1c1ccc(F)c(F)c1Cl` (single isomer, unassigned) [Compound 300D, Methyl 6-(−3-acetamidocyclopentyl)-4-(2-chloro-3,4-difluorophenyl)-2-(thiazol-2-yl)-1,4-dihydropyrimidine-5-carboxylate]: the EC50 in the series with HBV worked out at 14 nM. Besides, in the series on HepG2.2.15 cells, half-maximal cytotoxicity (CC50) was put at 12600 nM.
As for `COC(=O)C1=C(C2COC(CO)C2)NC(c2nccs2)=NC1c1cccc(F)c1Cl` (single isomer, unassigned) [Compound 219E, Methyl 4-(2-chloro-3-fluorophenyl)-6-(5-(hydroxymethyl)-tetrahydrofuran-3-yl)-2-(thiazol-2-yl)-1,4-dihydropyrimidine-5-carboxylate], the EC50 with HBV was 134 nM. In addition, in the series on HepG2.2.15 cells, it took 51400 nM to reach half-maximal cytotoxicity (CC50).
The matching figures for `COC(=O)C1=C(C2CCN(S(=O)(=O)C3CC(C)(C(=O)O)C3)CC2)NC(c2nccs2)=NC1c1cccc(F)c1Br` (stereo not drawn) [Compound 278C, (trans)-3-((4-(6-(2-bromo-3-fluorophenyl)-5-(methoxycarbonyl)-2-(thiazol-2-yl)-3,6-dihydropyrimidin-4-yl)piperidin-1-yl)sulfonyl)-1-methylcyclobutanecarboxylic Acid]: 45 nM and 18900 nM.
Turning to `COC(=O)C1=C(C2CCNC(=O)C2)NC(c2nccs2)=NC1c1ccc(F)cc1Cl` (single isomer, unassigned) [Compound 3A, Methyl 4-(2-chloro-4-fluorophenyl)-6-(2-oxopiperidin-4-yl)-2-(thiazol-2-yl)-1,4-dihydro-pyrimidine-5-carboxylate], in the series with HBV (Hepatitis B virus, HepG2.2.15, 144 h), the concentration giving a half-maximal response (EC50) was found to be 126 nM. For the same compound, the half-maximal cytotoxic concentration (CC50) in the series with HepG2.2.15 cells is 35900 nM.
As to `CCOC(=O)C1=C(C2CCN(S(=O)(=O)[C@H]3C[C@@](C)(C(=O)O)C3)CC2)NC(c2nccs2)=NC1c1ccc(F)cc1Cl` (stereo partly drawn) [Compound 272B, (cis)-3-((4-(6-(2-Chloro-4-fluorophenyl)-5-(ethoxycarbonyl)-2-(thiazol-2-yl)-3,6-dihydropyrimidin-4-yl)piperidin-1-yl)sulfonyl)-1-methylcyclobutanecarboxylic Acid], in the series with HBV, the concentration for a half-maximal effect (EC50) stood at 47 nM. In the series with HepG2.2.15 cells, this compound displayed a 50% cytotoxic concentration (CC50) of 20100 nM.
For the compound `COC(=O)C1=C(C2CCC(C(=O)O)C2)NC(c2nccs2)=NC1c1ccc(F)cc1Cl` (single isomer, unassigned) [Compound 72F, 3-(6-(2-Chloro-4-fluorophenyl)-5-(methoxycarbonyl)-2-(thiazol-2-yl)-3,6-dihydropyrimidin-4-yl)cyclopentanecarboxylic Acid], the EC50 in the series with HBV is 58 nM. Also, it took 30000 nM to reach half-maximal cytotoxicity in the series on HepG2.2.15 cells (CC50).
The matching figures for `CCOC(=O)C1=C(C2CCN(S(=O)(=O)C3CC(C)(C(=O)O)C3)CC2)NC(c2nccs2)=NC1c1cccc(F)c1Br` (single isomer, unassigned) [Compound 414C, (trans)-3-((4-(6-(2-Bromo-3-fluorophenyl)-5-(ethoxycarbonyl)-2-(thiazol-2-yl)-3,6-dihydropyrimidin-4-yl)piperidin-1-yl)sulfonyl)-1-methylcyclobutanecarboxylic Acid]: 19 nM and 17300 nM.
`COC(=O)C1=C(C2CCCC(C(=O)O)CC2)NC(c2nccs2)=NC1c1ccc(F)cc1Cl` (single isomer, unassigned) [Compound 95C, 4-(6-(2-Chloro-4-fluorophenyl)-5-(methoxycarbonyl)-2-(thiazol-2-yl)-3,6-dihydropyrimidin-4-yl)cycloheptanecarboxylic Acid]: the concentration for a half-maximal effect (EC50) with HBV was found to be 117 nM. Moreover, the CC50 in the series with HepG2.2.15 cells was 33100 nM.
As to `COC(=O)C1=C(C2COC(CO)C2)NC(c2nccs2)=NC1c1cccc(F)c1Cl` (single isomer, unassigned) [Compound 219C, Methyl 4-(2-chloro-3-fluorophenyl)-6-(5-(hydroxymethyl)-tetrahydrofuran-3-yl)-2-(thiazol-2-yl)-1,4-dihydropyrimidine-5-carboxylate], the EC50 in the series on HBV turned out to be 176 nM. In the series with HepG2.2.15 cells, this compound returned a 50% cytotoxic concentration (CC50) of 10300 nM.
As for `COC(=O)C1=C(C2CCN(S(=O)(=O)C3CC(C)(C(=O)O)C3)CC2)NC(c2nccs2)=NC1c1ccc(F)cc1C` (stereo not drawn) [Compound 447C, (trans)-3-((4-(6-(4-Fluoro-2-methylphenyl)-5-(methoxycarbonyl)-2-(thiazol-2-yl)-3,6-dihydropyrimidin-4-yl)piperidin-1-yl)sulfonyl)-1-methylcyclobutanecarboxylic Acid], the EC50 in the series with HBV amounted to 80 nM. Moreover, in the series with HepG2.2.15 cells, half-maximal cytotoxicity (CC50) was put at 48200 nM.
On to `COC(=O)C1=C(C2CCC(NC(C)=O)C2)NC(c2nccs2)=NC1c1cccc(F)c1Cl` (single isomer, unassigned) [Compound 62B, Methyl 6-(3-acetamidocyclopentyl)-4-(2-chloro-3-fluorophenyl)-2-(thiazol-2-yl)-1,4-dihydropyrimidine-5-carboxylate], for which, in the series with HBV, the EC50 worked out at 63 nM. The compound also displayed a CC50 in the series on HepG2.2.15 cells of 22900 nM.
In the case of `COC(=O)C1=C(C2CCOC2)NC(c2nccs2)=NC1c1cccc(F)c1Cl` (single isomer, unassigned) [Compound 74D, Methyl 4-(2-chloro-3-fluorophenyl)-6-(tetrahydrofuran-3-yl)-2-(thiazol-2-yl)-1,4-dihydropyrimidine-5-carboxylate], the EC50 in the series on HBV worked out at 303 nM. The CC50 in the series on HepG2.2.15 cells was 84500 nM.
Turning to `COC(=O)C1=C([C@H]2CC[C@H](NS(C)(=N)=O)CC2)NC(c2nccs2)=NC1c1ccc(F)cc1Cl` (single isomer, unassigned) [Compound 287D, Methyl 4-(2-chloro-4-fluorophenyl)-6-((trans)-4-(methylsulfonoimidamido)cyclohexyl)-2-(thiazol-2-yl)-1,4-dihydropyrimidine-5-carboxylate], the 50% effective concentration (EC50) in the series on HBV was 67 nM. This compound came in with a CC50 with HepG2.2.15 cells of 60000 nM.
The matching figures for `COC(=O)C1=C(C2CCCOC2)NC(c2nccs2)=NC1c1ccc(F)cc1Cl` (single isomer, unassigned) [Compound 48A, Methyl 4-(2-chloro-4-fluorophenyl)-6-(tetrahydro-2H-pyran-3-yl)-2-(thiazol-2-yl)-1,4-dihydropyrimidine-5-carboxylate]: 565 nM and 46900 nM.
`CCOC(=O)C1=C(C2CCN(S(=O)(=O)C3CC(C)(C(=O)O)C3)CC2)NC(c2nccs2)=NC1c1cccc(F)c1Cl` (single isomer, unassigned) [Compound 321B, (cis)-3-((4-(6-(2-Chloro-3-fluorophenyl)-5-(ethoxycarbonyl)-2-(thiazol-2-yl)-3,6-dihydropyrimidin-4-yl)piperidin-1-yl)sulfonyl)-1-methylcyclobutanecarboxylic Acid]: in the series on HBV, the EC50 was found to be 60 nM. The compound also returned a CC50 with HepG2.2.15 cells of 15800 nM.
For the compound `CCOC(=O)C1=C([C@@H]2CC[C@H](C(=O)O)OC2)NC(c2nccs2)=NC1c1ccc(F)cc1Cl` (single isomer, unassigned) [Compound 265H, (cis)-5-(−6-(2-Chloro-4-fluorophenyl)-5-(ethoxycarbonyl)-2-(thiazol-2-yl)-3,6-dihydropyrimidin-4-yl)tetrahydro-2H-pyran-2-carboxylic Acid], the 50% effective concentration (EC50) in the series on HBV was found to be 214 nM. The compound also had a CC50 in the series on HepG2.2.15 cells of over 100000 nM.
The matching figures for `COC(=O)C1=C(C2CCN(S(=O)(=O)CC(O)CO)CC2)NC(c2nccs2)=NC1c1ccc(F)cc1Cl` (single isomer, unassigned) [Compound 305B, Methyl 4-(2-chloro-4-fluorophenyl)-6-(1-((2,3-dihydroxypropyl)sulfonyl)piperidin-4-yl)-2-(thiazol-2-yl)-1,4-dihydropyrimidine-5-carboxylate]: 25 nM and 34500 nM.
Take `COC(=O)C1=C(C2CCN(S(=O)(=O)C3CC(C)(C(=O)O)C3)CC2)NC(c2nccs2)=NC1c1ccc(F)cc1Br` (single isomer, unassigned) [Compound 410C, trans-3-((4-(6-(2-Bromo-4-fluorophenyl)-5-(methoxycarbonyl)-2-(thiazol-2-yl)-3,6-dihydropyrimidin-4-yl)piperidin-1-yl)sulfonyl)-1-methylcyclobutanecarboxylic Acid]: the EC50 with HBV was found to be 16 nM. The same compound displayed a cytotoxic concentration (CC50) with HepG2.2.15 cells of 24700 nM.
Take `COC(=O)C1=C(C2CCOC2)NC(c2nccs2)=NC1c1cccc(F)c1Cl` (single isomer, unassigned) [Compound 74A, Methyl 4-(2-chloro-3-fluorophenyl)-6-(tetrahydrofuran-3-yl)-2-(thiazol-2-yl)-1,4-dihydropyrimidine-5-carboxylate]: in the series on HBV, the EC50 came to 88 nM. The half-maximal cytotoxic concentration (CC50) in the series on HepG2.2.15 cells was determined as 33000 nM.
As to `CCCS(=O)(=O)N1CCC(C2=C(C(=O)OC)C(c3ccc(F)cc3Cl)N=C(c3nccs3)N2)C1` (single isomer, unassigned) [Compound 256A, Methyl 4-(2-chloro-4-fluorophenyl)-6-(−1-(propylsulfonyl)pyrrolidin-3-yl)-2-(thiazol-2-yl)-1,4-dihydropyrimidine-5-carboxylate], the EC50 in the series with HBV was 82 nM. This compound displayed a CC50 in the series with HepG2.2.15 cells of over 100000 nM.
For `COC(=O)C1=C(C2CCCN(S(C)(=O)=O)C2)NC(c2nccs2)=NC1c1ccc(F)cc1Cl` (single isomer, unassigned) [Compound 33C, Methyl 4-(2-chloro-4-fluorophenyl)-6-(1-(methylsulfonyl)piperidin-3-yl)-2-(thiazol-2-yl)-1,4-dihydropyrimidine-5-carboxylate], in that order: 484 nM and 37700 nM.
